Holding throughout (type): biochemical
One assay deals with T1, Gox0502 (Gluconobacter oxydans, UniProt Q5FTL6).
T1 sequence (Q5FTL6 1-361): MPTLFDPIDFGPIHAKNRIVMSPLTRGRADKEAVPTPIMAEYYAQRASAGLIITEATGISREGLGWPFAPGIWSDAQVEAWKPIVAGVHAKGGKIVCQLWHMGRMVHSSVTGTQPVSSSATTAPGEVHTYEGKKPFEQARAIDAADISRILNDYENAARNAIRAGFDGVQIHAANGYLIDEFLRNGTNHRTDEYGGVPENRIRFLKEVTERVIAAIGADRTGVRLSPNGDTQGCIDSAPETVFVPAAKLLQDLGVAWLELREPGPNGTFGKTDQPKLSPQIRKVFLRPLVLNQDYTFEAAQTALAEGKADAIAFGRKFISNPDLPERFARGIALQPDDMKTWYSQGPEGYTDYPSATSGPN
The assay is described as follows: Enzyme activity assay (rate of NAD(P)H decrease at 340 nm), Gox0502. The settings on record: 10 mM substrate; for Specific Activity: Tab. 7, Gox0502, cofactor NADPH, pH 7.0, 30 °C; for Activity: Table 3, Gox0502, K-phosphate buffer pH 7.0, 0.05 mM NAD(P)H, 30 °C. Further details: Strep-tag II (N); made in house; host or cells: E. coli BL21 or E. coli DH5α (pASK-IBA5). The procedure, abridged: (§1)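 Purified enzymes assayed at 30 °C in 40 mM potassium phosphate pH 7.0 with 10 mM substrate and NAD(P)H (0.025 mM, or 0.05 mM in the standard mixture), started by adding enzyme or substrate. Activity followed as the rate of NAD(P)H decrease at 340 nm; one unit = 1 µmol pyridine nucleotide converted per min; protein measured by Bradford.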

Another assay concerns the target T2, Gox1615 (Gluconobacter oxydans, UniProt Q5FQJ0).
T2 sequence (Q5FQJ0 1-332): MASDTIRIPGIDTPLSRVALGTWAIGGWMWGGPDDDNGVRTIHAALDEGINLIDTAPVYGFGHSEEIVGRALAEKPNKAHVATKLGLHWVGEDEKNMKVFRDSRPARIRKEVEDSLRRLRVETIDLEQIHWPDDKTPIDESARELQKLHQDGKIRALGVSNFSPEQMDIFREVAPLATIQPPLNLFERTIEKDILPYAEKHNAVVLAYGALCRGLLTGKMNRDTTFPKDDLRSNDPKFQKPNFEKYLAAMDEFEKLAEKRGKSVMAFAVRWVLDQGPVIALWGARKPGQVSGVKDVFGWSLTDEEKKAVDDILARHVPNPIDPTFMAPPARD
Briefly: Enzyme activity assay (rate of NAD(P)H decrease at 340 nm), Gox1615. Particulars: 10 mM substrate; for Specific Activity: Tab. 5, Gox1615, cofactor NADPH, pH 7.0, 30 °C; for Activity: Table 3, Gox1615, K-phosphate buffer pH 7.0, 0.05 mM NAD(P)H, 30 °C. In a few lines: as §1

For a further assay, the target named is Gox2107 (Gluconobacter oxydans, UniProt Q5FP53). Briefly: Enzyme activity assay (rate of NAD(P)H decrease at 340 nm), Gox2107. The settings on record: 10 mM substrate; for Specific Activity: Tab. 7, Gox2107, cofactor NADPH, pH 7.0, 30 °C. In a few lines: as §1
In the next assay the target is T3, Gox0313 (Gluconobacter oxydans, UniProt Q5FU50).
T3 sequence (Q5FU50 1-343): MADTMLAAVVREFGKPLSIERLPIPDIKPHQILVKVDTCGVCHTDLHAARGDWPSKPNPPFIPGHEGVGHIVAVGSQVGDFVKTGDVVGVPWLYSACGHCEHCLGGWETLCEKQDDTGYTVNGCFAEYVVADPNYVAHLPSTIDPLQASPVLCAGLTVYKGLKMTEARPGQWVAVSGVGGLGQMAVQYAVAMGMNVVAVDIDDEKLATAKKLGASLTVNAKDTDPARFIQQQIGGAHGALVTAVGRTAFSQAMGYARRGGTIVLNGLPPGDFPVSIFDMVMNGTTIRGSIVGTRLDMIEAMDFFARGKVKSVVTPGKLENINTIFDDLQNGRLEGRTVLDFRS
Briefly: Enzyme activity assay (rate of NAD(P)H decrease at 340 nm), Gox0313. Particulars: 10 mM substrate; for Specific Activity: Tab. 6, Gox0313, substrate reduction, cofactor NADH, pH 7.0, 30 °C; for Activity: Table 3, Gox0313, K-phosphate buffer pH 7.0, 0.05 mM NAD(P)H, 30 °C. The procedure, abridged:
as §1

The target in another assay is Gox0644 (Gluconobacter oxydans, UniProt Q5FT75). The assay is described as follows: Enzyme activity assay (rate of NAD(P)H decrease at 340 nm), Gox0644. Particulars: 10 mM substrate; for Specific Activity: Tab. 4, Gox0644, cofactor NADPH, pH 7.0, 30 °C; for Activity: Table 3, Gox0644, K-phosphate buffer pH 7.0, 0.05 mM NAD(P)H, 30 °C. As to the method: (§2) Reactions were induced by addition of enzyme or substrate. One unit of enzyme activity was defined as the amount of enzyme catalyzing the conversion of 1 µmol of pyridine nucleotide per min at 30 °C.
as §2
For each enzyme (Gox0313, Gox0502, Gox0644, Gox0646, Gox1615, Gox2107, and Gox2684 respectively), fresh enzyme preparations were used to validate the substrate spectrum and the kinetic activity. […] Reactions were induced by addition of enzyme or substrate. One unit of enzyme activity was defined as the amount of enzyme catalyzing the conversion of 1 µmol of pyridine nucleotide per min at 30 °C. […] Table 3: Summary of enzymatic activities with α-diketones, α-ketoaldehydes and /or α-ketoesters

Molecules are shown by their SMILES.

On to `CCCC(=O)C(C)=O` [2,3-hexanedione], for which the “Specific Activity” value on Gox0502 was 1.0 U/mg; at Gox1615, 6.5 U/mg; on Gox2107 it was below 0.1 U/mg; at Gox0313 it was 19.6 U/mg; on Gox0644, 50.1 U/mg. Moreover, the Activity on Gox1615 is given as 6.5 U/mg; at Gox0313, 19.6 U/mg; at Gox0644, 50.1 U/mg.
Take `O=CC(=O)c1ccccc1` [phenylglyoxal]: the “Specific Activity” value is reported as 15.7 U/mg on Gox0502; 19.1 U/mg at Gox1615; 35.2 U/mg on Gox2107; 0.5 U/mg on Gox0313; 66.0 U/mg at Gox0644. For the same compound, the Activity turned out to be 15.7 U/mg on Gox0502; 19.1 U/mg at Gox1615; 35.2 U/mg at Gox2107 (Table 3, Gox2107, K-phosphate buffer pH 7.0, 0.05 mM NAD(P)H, 30 °C); 0.5 U/mg on Gox0313; 66.0 U/mg on Gox0644.
`CCC(=O)C(C)=O` [2,3-pentanedione]: the “Specific Activity” value at Gox1615 was 6.2 U/mg; on Gox0313, 35.9 U/mg; on Gox0644, 89.3 U/mg. The values for the Activity at Gox1615, on Gox0313 and on Gox0644 were 6.2 U/mg, 35.9 U/mg and 89.3 U/mg, respectively.
Take `CCC(=O)C(=O)CC` [3,4-hexanedione]: the “Specific Activity” value is reported as 2,0 U/mg at Gox0502; 2 U/mg on Gox1615; below 0.1 U/mg at Gox2107; 19.5 U/mg at Gox0313; 7.3 U/mg at Gox0644. For the same compound, the Activity was found to be 2.0 U/mg on Gox0502, 2.0 U/mg on Gox1615, 19.5 U/mg on Gox0313 and 7.3 U/mg at Gox0644.
`CC(=O)C=O` [methylglyoxal]: the “Specific Activity” value is 1.5 U/mg at Gox0502; 19.3 U/mg at Gox1615; below 0.1 U/mg at Gox2107; 10.6 U/mg on Gox0313; 3.4 U/mg on Gox0644. In addition, the Activity amounted to 19.3 U/mg at Gox1615, 10.6 U/mg on Gox0313 and 3.4 U/mg on Gox0644.

The record behind these values is patent EP2119770B1, “Production of alpha-oxyfunctionalized carbonyl compounds” (priority 2008, dated 2009).
